Data from US20240100023A1, “Compositions and Methods For Treating Spinal Cord Injuries” (priority 2020, published 2024).

How the values were obtained:
hippocampal slices = settings: male, Sprague-Dawley, rat
[1] = tested on: unanesthetized, freely moving rats; assay: Diaphragm EMG and plethysmography in awake rats after C2Hx; assay type: in vivo, Rat
Experimental: Low dose ampakine treatment was evaluated in awake, freely moving subjects to determine whether this treatment would safely and effectively increase diaphragm activity impaired due to acute- or sub-acute cervical SCI. In a placebo-controlled experiment with freely-moving non-anesthetized rats, ventilation and metabolic rate (VCO2) were measured using whole body plethysmography and diaphragm EMG using in-dwelling muscle electrodes. Diaphragm electromyography (EMG) was recorded using chronic in-dwelling electrodes in unanesthetized, freely moving rats. A spinal hemilesion was induced at C2 (C2Hx), and rats were studied at 4- and 14-days post injury during quiet room air breathing and acute respiratory challenge accomplished by inspiring 10% O2, 7% CO2 gas mixture. At 4 and 14 days following C2 spinal hemisection injury (C2Hx), rats were given a single intravenous bolus of CX717 (5 mg/kg, n=8), CX1739 (5 mg/kg, n=8) or vehicle (2-hydroxypropyl-beta-cyclodextrin; HPCD; n=8) (FIG. 22). Hemisectional spinal surgery results in reduced diaphragm activity as measured by EMG and plethysmography (FIG. 23).

Rat (SD) = assay: Radial arm maze - spatial memory; assay type: in vivo; settings: for Minimum Effective Dose, radial arm maze - spatial memory: Rat (SD), IP
Experimental: Yet another animal model for evaluating ampakine drug activity employed herein is the well-known and widely accepted Radial Arm Maze model. CX717 was tested for its ability to improve the performance of aged rats in an eight-arm radial maze using a cross-over design study. This behavioral test uses a standard eight-arm radial maze wherein five arms were open and baited with food pellets for the first morning session. Each animal was allowed to consume the food rewards present in the open arms and was then returned to its home cage. Six hours later animals were returned to the maze, wherein all eight-arms were open, but only the three arms previously closed contained food rewards. Scoring was based on the number of correct choices before an incorrect choice (re-entering an arm that was visited during the morning acquisition session) was made and on the total number of incorrect choices made before all three of the still baited arms were visited. CX717 was tested at six doses (0.03, 0.1, 0.3, 1, 3 and 10 mg/kg in hydroxypropyl β-cyclodextran, i.p.), administered 30 min prior to the start of the morning acquisition session and no drug was given prior to the second trial six hours later.
For CX1739 male Sprague-Dawley rats were trained to perform the win shift assay on the radial arm maze for approximately 10 weeks prior to the study. On each day of training and testing, each rat completed one trial, split into a sample phase and a test phase. During the sample phase, the rat was placed on a 12-arm radial arm maze surrounded by visual cues. Food wells at the end of each arm were baited with sucrose pellets but access to three arms, selected randomly, was blocked with a clear plastic divider at the arm entrance. The rat was allowed 5 minutes to search the maze and collect the available food pellets before being removed from the maze. Fifteen minutes later the rat was returned to the maze for the test phase of the trial. During the test phase, the rat was allowed access to all 12 arms of the maze but only the arms that had been blocked previously were baited with sucrose pellets. […]

[2] = 14 days post injury, baseline breathing, 5 mg/kg i.v.

SMILES	Concentration at which seizure activity is seen in hippocampal slices (hippocampal slices)	Increase in tidal volume [1, 2]	Increase of peak inspiratory ipsilateral diaphragm EMG activity [1, 2]	Minimum Effective Dose, radial arm maze - spatial memory (Rat (SD))	Increase in tidal volume ([1]; 4-day time point, 5 mg/kg intravenous bolus)	Tidal volume during hypoxia-hypercapnia challenge ([1]; 10% O2, 7% CO2, follows the 4-day results)	Dose producing the maximal effect / optimal dose in the maze assays (Rat (SD); ip)
O=C(c1ccc2nonc2c1)N1CCOCC1 [CX717, 1-(benzofurazan-5-ylcarbonyl)morpholine]	> 600 µM	~20%	~30%	0.3 mg/kg			
CN(C(=O)c1ccc2nonc2c1)C1CCOCC1 [CX1739, N-Methyl-N-tetrahydro-2H-pyran-4-yl-[2,1,3]-benzoxadiazole-5-carboxamide]		no change in tidal volume	~10%	0.3 mg/kg	20%	larger increase in tidal volume	0.3 mg/kg
